From patent US20160031941A1, “TARGETING PEPTIDES THAT BIND S. MUTANS, CONSTRUCTS COMPRISING SUCH PEPTIDES AND USES THEREOF” (priority 2014, published 2016)
Read-outs that look alike come from different tables or passages of the source. Ends that are not written are not given here. Peptide text beside a SMILES is read from it.

Assays:
A. niger = experiment: MIC of antimicrobial peptides; type: cell-based
Method: (§1) Typically, the in vitro antimicrobial activity of antimicrobial agents is tested using standard NCCLS bacterial inhibition assays, or MIC tests (see, National Committee on Clinical Laboratory Standards “Performance Standards for Antimicrobial Susceptibility Testing,” NCCLS Document M100-S5 Vol. 14, No. 16, December 1994; “Methods for dilution antimicrobial susceptibility test for bacteria that grow aerobically-Third Edition,” Approved Standard M7-A3, National Committee for Clinical Standards, Villanova, Pa.).

MRSA = experiment: MIC of antimicrobial peptides; type: cell-based, methicillin resistant Staphylococcus aureus
Method: as §1

E. coli = experiment: MIC of antimicrobial peptides; type: cell-based
Method: as §1

S. mutans [1] = type: cell-based
Method: as §1

S. mutans [2] = settings: Streptococcus mutans
B. subtilis = experiment: MIC of antimicrobial peptides; type: cell-based
Method: as §1

S. pneumoniae = type: cell-based
Method: as §1

T. rubrum = experiment: MIC of antimicrobial peptides; type: cell-based
Method: as §1

C. difficile = type: cell-based
Method: as §1

S. epidermidis = type: cell-based
Method: as §1

C. jeikeium = type: cell-based
Method: as §1

A. baumannii = type: cell-based
Method: as §1

P. aeruginosa = type: cell-based
Method: as §1

**Q.** How did the MIC (A. niger) turn out when SLQSQLGPCLHDQRH [PF-448] was run?
**A.** A. niger, 25 μM

**Q.** VLPFPAIPLSRRRACVAAPRPRSRQRAS [PF-168] was tested. Which MIC (MRSA) did it give?
**A.** MRSA, 50 μM

**Q.** With “FESKILNASKELDKEKKVNTALSFNSHQDFAKAYQNGKI [PF-606]” as the molecule, how does the MIC (E. coli) read?
**A.** E. coli, 50 μM

**Q.** And the MIC (MRSA)?
**A.** MRSA, 50 μM

**Q.** What about the MIC (S. mutans [1]; S. mutans) of the same molecule?
**A.** S. mutans, 50 μM

**Q.** Which “% viability remaining” value (S. mutans [2]) does the source give for “TFFRLFNRSFTQALDKGGGKNLRIIRKGIHIIKKY-NH2 (C-terminus assumed) [G15-D15_C16G2]” here?
**A.** 47%

**Q.** For “TFFRLFNRSFTQALFKGGGKNLRIIRKGIHIIKKY-NH2 (C-terminus assumed) [G15-F15_C16G2]”, which “% viability remaining” value (S. mutans [2]) is on record?
**A.** 29%

**Q.** “TFFRLLNRSFTQALGKGGGKNLRIIRKGIHIIKKY-NH2 (C-terminus assumed) [F6-L6_C16G2]” was tested. Which “% viability remaining” value (S. mutans [2]) did it give?
**A.** 43%

**Q.** For `CC[C@H](C)[C@H](NC(=O)CNC(=O)[C@H](CCCCN)NC(=O)[C@H](CCCNC(=N)N)NC(=O)[C@@H](NC(=O)[C@@H](NC(=O)[C@H](CCCNC(=N)N)NC(=O)[C@H](CC(C)C)NC(=O)[C@H](CC(N)=O)NC(=O)[C@H](CCCCN)NC(=O)CNC(=O)CNC(=O)CNC(=O)[C@H](CCCCN)NC(=O)CNC(=O)[C@H](CC(C)C)NC(=O)[C@H](C)NC(=O)[C@H](CCC(N)=O)NC(=O)[C@@H](NC(=O)[C@H](CCC(N)=O)NC(=O)[C@H](CO)NC(=O)[C@H](CCCNC(=N)N)NC(=O)[C@H](CC(N)=O)NC(=O)[C@H](CCC(N)=O)NC(=O)[C@H](CC(C)C)NC(=O)[C@H](CCCNC(=N)N)NC(=O)[C@H](Cc1ccccc1)NC(=O)[C@H](CCC(N)=O)NC(=O)[C@@H](N)[C@@H](C)O)[C@@H](C)O)[C@@H](C)CC)[C@@H](C)CC)C(=O)N[C@@H](Cc1c[nH]cn1)C(=O)N[C@H](C(=O)N[C@H](C(=O)N[C@@H](CCCCN)C(=O)N[C@@H](CCCCN)C(=O)N[C@@H](Cc1ccc(O)cc1)C(N)=O)[C@@H](C)CC)[C@@H](C)CC` [F7/11/15 sub Q_C16G2], which “% viability remaining” value (S. mutans [2]) is on record?
**A.** 93%

**Q.** How did the MIC (S. mutans [1]) turn out when VYRKRKSILKIYAKLKGWH [K-2] was run?
**A.** 12.5 µM

**Q.** How did the “% viability remaining” value (S. mutans [2]) turn out when “TQFRLFNRSFTQALGKGGGKNLRIIRKGIHIIKKY-NH2 (C-terminus assumed) [F2 to Q2_C16G2]” was run?
**A.** 47%

**Q.** Which MIC (B. subtilis) does the source give for `CC[C@H](C)[C@H](NC(=O)CNC(=O)[C@@H](N)CCSC)C(=O)N[C@H](C(=O)N[C@@H](C)C(=O)NCC(=O)N[C@H](C(=O)N[C@H](C(=O)N[C@@H](CCCCN)C(=O)N[C@@H](Cc1ccccc1)C(=O)N[C@H](C(=O)N[C@@H](CCCCN)C(=O)NCC(=O)N[C@@H](CC(C)C)C(=O)N[C@H](C(=O)N[C@@H](CCC(=O)O)C(=O)N[C@@H](CCCCN)C(=O)N[C@@H](Cc1ccccc1)C(=O)N[C@H](C(=O)NCC(=O)N[C@@H](CCCCN)C(=O)O)[C@@H](C)O)[C@@H](C)CC)[C@@H](C)CC)[C@@H](C)CC)[C@@H](C)CC)[C@@H](C)CC` [PF-006] here?
**A.** B. subtilis, 25 μM

**Q.** And the MIC (MRSA)?
**A.** MRSA, 50 μM

**Q.** With NYAVVSHT [PF-209] as the molecule, how does the MIC (MRSA) read?
**A.** MRSA, 50 μM

**Q.** For “TFFRLFNRSFTQALGKGGGKNLRIIRKGIHIIKKY-NH2 [C16G2, reference compound]”, which “% viability remaining” value (S. mutans [2]) is on record?
**A.** antimicrobial peptide and GGG linker showed 5-18% remaining activity

**Q.** Which “% viability remaining” value (S. mutans [2]) does the source give for “TFFRLFNRSLTQALGKGGGKNLRIIRKGIHIIKKY-NH2 (C-terminus assumed) [F10-L10_C16G2]” here?
**A.** 30%

**Q.** Which MIC (S. pneumoniae; S. pneumoniae) does the source give for “LGLTAGVAYAAQPTNQPTNQPTNQPTNQPTNQPTNQPRW-NH2 [PF-520]” here?
**A.** 50 µM

**Q.** How did the “% viability remaining” value (S. mutans [2]) turn out when “TLFRLFNRSFTQALGKGGGKNLRIIRKGIHIIKKY-NH2 (C-terminus assumed) [F2-L2_C16G2]” was run?
**A.** 63%

**Q.** For “TLFRLLNRSLTQALGKGGGKNLRIIRKGIHIIKKY-NH2 (C-terminus assumed) [F2F6F10-L2L6L10_C16G2]”, which “% viability remaining” value (S. mutans [2]) is on record?
**A.** 26%

**Q.** For “TKKIELKRFVDAFVKKSYENYILERELKKLIKAINEELPTK [PF-600]”, which MIC (E. coli) is on record?
**A.** E. coli, 50 μM

**Q.** YIQFHLNQQPRPKVKKIKIFL-NH2 [PF-531] was tested. Which MIC (B. subtilis) did it give?
**A.** B. subtilis, 25 μM

**Q.** What about the MIC (A. niger) of the same molecule?
**A.** A. niger, 25 μM

**Q.** What about the MIC (T. rubrum) of the same molecule?
**A.** T. rubrum, 50 μM

**Q.** And the MIC (C. difficile)?
**A.** 12.5 µM

**Q.** What about the MIC (S. epidermidis) of the same molecule?
**A.** 50 µM

**Q.** What about the MIC (S. mutans [1]) of the same molecule?
**A.** 12.5 µM

**Q.** And the MIC (C. jeikeium)?
**A.** 6.25 µM

**Q.** What about the MIC (A. baumannii) of the same molecule?
**A.** 25 µM

**Q.** What about the MIC (P. aeruginosa) of the same molecule?
**A.** 50 µM

**Q.** How did the MIC (A. niger) turn out when KFSDQIDKGQDALKDKLGDL [PF-525] was run?
**A.** A. niger, 50 μM

**Q.** How did the MIC (B. subtilis) turn out when `CSCC[C@H](N)C(=O)N[C@@H](CCCCN)C(=O)N[C@@H](CCCNC(=N)N)C(=O)N[C@@H](CCCNC(=N)N)C(=O)N[C@@H](CCCNC(=N)N)C(=O)N[C@@H](CS)C(=O)N[C@@H](CC(N)=O)C(=O)N[C@@H](Cc1c[nH]c2ccccc12)C(=O)N[C@@H](CS)C(=O)NCC(=O)N[C@@H](CCCCN)C(=O)N[C@@H](CC(C)C)C(=O)N[C@@H](Cc1ccccc1)C(=O)N[C@@H](Cc1ccc(O)cc1)C(=O)N[C@@H](CC(C)C)C(=O)N[C@@H](CCC(=O)O)C(=O)N[C@@H](CCC(=O)O)C(=O)N[C@@H](CCCCN)C(=O)N[C@@H](CO)C(=O)N[C@@H](CCCCN)C(=O)N[C@@H](CCC(=O)O)C(=O)N[C@@H](C)C(=O)N[C@@H](Cc1ccc(O)cc1)C(=O)N[C@@H](CS)C(=O)N[C@@H](CS)C(=O)N[C@@H](CCCCN)C(=O)N[C@@H](CCC(=O)O)C(=O)N[C@@H](CS)C(=O)N[C@@H](CCCNC(=N)N)C(=O)N[C@@H](CCCCN)C(=O)N[C@@H](CCCCN)C(=O)N[C@@H](C)C(=O)N[C@@H](CCCCN)C(=O)N[C@@H](CCCCN)C(=O)N[C@H](C(=O)N[C@@H](CCCCN)C(=O)N[C@@H](CCCCN)C(=O)O)C(C)C` [PF-307] (H-MKRRRCNWCGKLFYLEEKSKEAYCCKECRKKAKKVKK-OH; N-terminus and C-terminus assumed) was run?
**A.** B. subtilis, 50 μM

**Q.** What about the MIC (T. rubrum) of the same molecule?
**A.** T. rubrum, 50 μM

**Q.** With “TWFRLFNRSFTQALGKGGGKNLRIIRKGIHIIKKY-NH2 (C-terminus assumed) [F2-W2_C16G2]” as the molecule, how does the “% viability remaining” value (S. mutans [2]) read?
**A.** 45%

**Q.** Which “% viability remaining” value (S. mutans [2]) does the source give for “TFFRLQNRSFTQALGKGGGKNLRIIRKGIHIIKKY-NH2 (C-terminus assumed) [F6 to Q6_C16G2]” here?
**A.** 79%

**Q.** For KFQGEFTNIGQSYIVSASHMSTSLNTGK [PF-583], which MIC (MRSA) is on record?
**A.** MRSA, 50 μM

**Q.** With LSLATFAKIFMTRSNWSLKRFNRL [PF-278] as the molecule, how does the MIC (T. rubrum) read?
**A.** T. rubrum, 50 μM

**Q.** How did the MIC (MRSA) turn out when RESKLIAMADMIRRRI-NH2 [PF-545] was run?
**A.** MRSA, 50 μM

**Q.** For LSEMERRRLRKRA-NH2 [PF-529], which MIC (A. niger) is on record?
**A.** A. niger, 50 μM

**Q.** What about the MIC (S. pneumoniae) of the same molecule?
**A.** 50 µM

**Q.** Which MIC (B. subtilis) does the source give for WSRVPGHSDTGWKVWHRW-NH2 [PF-547] here?
**A.** B. subtilis, 25 μM

**Q.** What about the MIC (T. rubrum) of the same molecule?
**A.** T. rubrum, 25 μM

**Q.** And the MIC (S. mutans [1])?
**A.** 12.5 µM

**Q.** “TFFRLFNRSFTQALAKGGGKNLRIIRKGIHIIKKY-NH2 (C-terminus assumed) [G15-A15_C16G2]” was tested. Which “% viability remaining” value (S. mutans [2]) did it give?
**A.** 47%

**Q.** What does the source list for “GSVIKKRRKRMAKKKHRKLLKKTRIQRRRAGK [PF-527]”?
**A.** MIC (A. niger): A. niger, 50 μM; MIC (T. rubrum): T. rubrum, 25 μM; MIC (MRSA): MRSA, 50 μM

**Q.** With MRFGSLALVAYDSAIKHSWPRPSSVRRLRM [PF-672] as the molecule, how does the MIC (A. niger) read?
**A.** A. niger, 3 μM

**Q.** And the MIC (MRSA)?
**A.** MRSA, 1.56 μM

**Q.** Which MIC (C. difficile; C. difficile) does the source give for KNKKQTDILEKVKEILDKKKKTKSVGQKLY [PF-538] here?
**A.** C. difficile, 25 μM

**Q.** “TAFRLANRSATQALGKGGGKNLRIIRKGIHIIKKY-NH2 (C-terminus assumed) [F2/6/10-A2/6/10_C16G2]” was tested. Which “% viability remaining” value (S. mutans [2]) did it give?
**A.** 78%

**Q.** Which “% viability remaining” value (S. mutans [2]) does the source give for “TFFRLFNRSQTQALGKGGGKNLRIIRKGIHIIKKY-NH2 (C-terminus assumed) [F10 to Q10_C16G2]” here?
**A.** 73%

**Q.** For FIRKFLQKLHL [K-16], which MIC (MRSA) is on record?
**A.** MRSA, 25 μM

**Q.** What about the MIC (S. mutans [1]; S. mutans) of the same molecule?
**A.** S. mutans, 8 μM

**Q.** What about the MIC (P. aeruginosa) of the same molecule?
**A.** 12.5 µM

**Q.** With MIRIRSPTKKKLNRNSISDWKSNTSGRFFY [PF-283] as the molecule, how does the MIC (B. subtilis) read?
**A.** B. subtilis, 50 μM

**Q.** What about the MIC (T. rubrum) of the same molecule?
**A.** T. rubrum, 50 μM
